Measured values as given in patent US4138554A, “7-[D-α-(4-Hydroxy-1,5-naphthyridine-3-carboxamido)-α-phenyl (and p-hydroxyphenyl)acetamido]-3-carbamoyloxymethyl-3-cephem-4-carboxylic acids” (priority 1977, dated 1979).
In brackets after ≈: the same amount, converted by molar mass. Like-named read-outs stand apart in the source and are kept apart here.

Columns and labels:
Type in all cases: cell-based
E. cloacae = assay: MIC by serial two-fold agar dilution (Mueller-Hinton agar), E. cloacae; settings: Enterobacter cloacae
Outline: (§1)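 Compounds were diluted two-fold serially into Mueller-Hinton agar, then organisms were applied using Steers' apparatus and MICs read. The primary panel comprised 31 test organisms, and the secondary evaluation 61 strains of P. aeruginosa.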

P. mirabilis = assay: MIC by serial two-fold agar dilution (Mueller-Hinton agar), P. mirabilis
Outline: (§2)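 Read-out is the minimum inhibitory concentration from agar plates (Mueller-Hinton) carrying serial two-fold drug dilutions, inoculated via Steers' apparatus. Strains: 31 test organisms in primary screening, 61 P. aeruginosa isolates for secondary evaluation.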

S. enteritidis = assay: MIC by serial two-fold agar dilution (Mueller-Hinton agar), S. enteritidis
Outline: as §2

Pseudomonas sp. = assay: MIC by serial two-fold agar dilution (Mueller-Hinton agar), Pseudomonas sp.; settings: Pseudomonas sp. A20358, Table 6
Description: Minimum inhibitory concentrations (MIC) of cephalosporins in the present study were determined by serial two-fold agar dilution method using Steers' apparatus on Mueller-Hinton agar plate against 31 test organisms for the primary screening and also against 61 strains of Pseudomonas aeruginosa for the secondary evaluation.

Pseudomonas aeruginosa = assay: MIC by agar dilution against 61 strains of Pseudomonas aeruginosa, secondary evaluation
Outline: as §1

`CC1(C)S[C@@H]2[C@H](NC(=O)C(c3ccccc3)S(=O)(=O)O)C(=O)N2[C@H]1C(=O)O` (stereo partly shown) [Sulbenicillin, sulbenicillin] gave an MIC (E. cloacae; E. cloacae (1st line), Table 1) of 12.5 µg/mL (≈ 30.2 µM), an MIC (E. cloacae; E. cloacae (2nd line), Table 1) greater than 100 µg/mL and an MIC (E. cloacae; E. cloacae (3rd line), Table 1) of 12.5 µg/mL (≈ 30.2 µM). It also gave an MIC (E. cloacae; E. cloacae A9656, Table 6) of 12.5 µg/mL (≈ 30.2 µM), an MIC (E. cloacae; E. cloacae A9657, Table 6) greater than 100 µg/mL and an MIC (E. cloacae; E. cloacae A9659, Table 6) of 12.5 µg/mL (≈ 30.2 µM). It also gave an MIC (P. mirabilis; P. mirabilis A9900, Table 6) of 0.8 µg/mL (≈ 1.93 µM), an MIC (P. mirabilis; Proteus mirabilis, P. mirabilis, Table 1, read-out: MIC) of 0.8 µg/mL (≈ 1.93 µM) and an MIC (S. enteritidis; S. enteritidis A9531, Table 6) of 1.6 µg/mL (≈ 3.86 µM). For the same molecule, the MIC (S. enteritidis; Salmonella enterica, S. enteritidis, Table 1, read-out: MIC) was 1.6 µg/mL (≈ 3.86 µM), the MIC (Pseudomonas sp.) was 3.1 µg/mL (≈ 7.48 µM) and the MIC (Pseudomonas aeruginosa; BBRI Pa-No. 1, D15, Table 7) was 12.5 µg/mL (≈ 30.2 µM). For the same molecule, the MIC (Pseudomonas aeruginosa; BBRI Pa-No. 3, 1449VA, Table 7) was 12.5 µg/mL (≈ 30.2 µM), the MIC (Pseudomonas aeruginosa; BBRI Pa-No. 4, H9 D113, Table 7) was 12.5 µg/mL (≈ 30.2 µM) and the MIC (Pseudomonas aeruginosa; BBRI Pa-No. 9, Yale, Table 7) was 12.5 µg/mL (≈ 30.2 µM). It also gave an MIC (Pseudomonas aeruginosa; BBRI Pa-No. 14, Table 7) of 12.5 µg/mL (≈ 30.2 µM), an MIC (Pseudomonas aeruginosa; BBRI Pa-No. 17, H6 D114, Table 2) of 12.5 µg/mL (≈ 30.2 µM) and an MIC (Pseudomonas aeruginosa; BBRI Pa-No. 18, H8 D121, Table 2) of 12.5 µg/mL (≈ 30.2 µM). For the same molecule, the MIC (Pseudomonas aeruginosa; BBRI Pa-No. 19, Table 2) was 12.5 µg/mL (≈ 30.2 µM), the MIC (Pseudomonas aeruginosa; BBRI Pa-No. 25, Table 2) was 12.5 µg/mL (≈ 30.2 µM) and the MIC (Pseudomonas aeruginosa; BBRI Pa-No. 26, Ps32, Table 2) was 12.5 µg/mL (≈ 30.2 µM). The MIC (Pseudomonas aeruginosa; BBRI Pa-No. 26, Ps32, Table 7) was 12.5 µg/mL (≈ 30.2 µM), the MIC (Pseudomonas aeruginosa; BBRI Pa-No. 31, Table 2) was 12.5 µg/mL (≈ 30.2 µM) and the MIC (Pseudomonas aeruginosa; BBRI Pa-No. 34, Table 7) was 12.5 µg/mL (≈ 30.2 µM). It also gave an MIC (Pseudomonas aeruginosa; BBRI Pa-No. 60, Table 2) of 12.5 µg/mL (≈ 30.2 µM), an MIC (Pseudomonas aeruginosa; BBRI Pa-No. 60, Table 7) of 12.5 µg/mL (≈ 30.2 µM) and an MIC (Pseudomonas aeruginosa; Pseudomonas aeruginosa) of 12.5 µg/mL (≈ 30.2 µM). For the same molecule, the MIC (Pseudomonas aeruginosa; Pseudomonas aeruginosa, 61 strains of Pseudomonas aeruginosa, Table 7, read-out: Geometric Mean of MIC) was 24 µg/mL (≈ 57.9 µM), the MIC (Pseudomonas aeruginosa; Pseudomonas aeruginosa, BBRI Pa-No. 1, D15, Table 2, read-out: MIC) was 25 µg/mL (≈ 60.3 µM) and the MIC (Pseudomonas aeruginosa; Pseudomonas aeruginosa, BBRI Pa-No. 2, VA, Table 7, read-out: MIC) was 25 µg/mL (≈ 60.3 µM). The MIC (Pseudomonas aeruginosa; Pseudomonas aeruginosa, BBRI Pa-No. 3, 1449VA, Table 2, read-out: MIC) was 6.3 µg/mL (≈ 15.2 µM), the MIC (Pseudomonas aeruginosa; Pseudomonas aeruginosa, BBRI Pa-No. 4, H9 D113, Table 2, read-out: MIC) was 25 µg/mL (≈ 60.3 µM) and the MIC (Pseudomonas aeruginosa; Pseudomonas aeruginosa, BBRI Pa-No. 5, M4865KC, Table 2, read-out: MIC) was 25 µg/mL (≈ 60.3 µM). For the same molecule, the MIC (Pseudomonas aeruginosa; Pseudomonas aeruginosa, BBRI Pa-No. 5, N4865KC, Table 7, read-out: MIC) was 6.3 µg/mL (≈ 15.2 µM), the MIC (Pseudomonas aeruginosa; Pseudomonas aeruginosa, BBRI Pa-No. 6, No. 5, Table 2, read-out: MIC) was greater than 100 µg/mL and the MIC (Pseudomonas aeruginosa; Pseudomonas aeruginosa, BBRI Pa-No. 6, No. 5, Table 7, read-out: MIC) was 100 µg/mL (≈ 241 µM). For the same molecule, the MIC (Pseudomonas aeruginosa; Pseudomonas aeruginosa, BBRI Pa-No. 7, Table 2, read-out: MIC) was 25 µg/mL (≈ 60.3 µM), the MIC (Pseudomonas aeruginosa; Pseudomonas aeruginosa, BBRI Pa-No. 7, Table 7, read-out: MIC) was 25 µg/mL (≈ 60.3 µM) and the MIC (Pseudomonas aeruginosa; Pseudomonas aeruginosa, BBRI Pa-No. 8, Table 2, read-out: MIC) was 25 µg/mL (≈ 60.3 µM). For the same molecule, the MIC (Pseudomonas aeruginosa; Pseudomonas aeruginosa, BBRI Pa-No. 8, Table 7, read-out: MIC) was 25 µg/mL (≈ 60.3 µM), the MIC (Pseudomonas aeruginosa; Pseudomonas aeruginosa, BBRI Pa-No. 9, Yale, Table 2, read-out: MIC) was 25 µg/mL (≈ 60.3 µM) and the MIC (Pseudomonas aeruginosa; Pseudomonas aeruginosa, BBRI Pa-No. 10, Table 2, read-out: MIC) was greater than 100 µg/mL. The MIC (Pseudomonas aeruginosa; Pseudomonas aeruginosa, BBRI Pa-No. 10, Table 7, read-out: MIC) was greater than 100 µg/mL, the MIC (Pseudomonas aeruginosa; Pseudomonas aeruginosa, BBRI Pa-No. 11, Table 2, read-out: MIC) was 25 µg/mL (≈ 60.3 µM) and the MIC (Pseudomonas aeruginosa; Pseudomonas aeruginosa, BBRI Pa-No. 11, Table 7, read-out: MIC) was 25 µg/mL (≈ 60.3 µM). For the same molecule, the MIC (Pseudomonas aeruginosa; Pseudomonas aeruginosa, BBRI Pa-No. 12, Table 2, read-out: MIC) was 50 µg/mL (≈ 121 µM), the MIC (Pseudomonas aeruginosa; Pseudomonas aeruginosa, BBRI Pa-No. 12, Table 7, read-out: MIC) was 25 µg/mL (≈ 60.3 µM) and the MIC (Pseudomonas aeruginosa; Pseudomonas aeruginosa, BBRI Pa-No. 14, Table 2, read-out: MIC) was 25 µg/mL (≈ 60.3 µM). It also gave an MIC (Pseudomonas aeruginosa; Pseudomonas aeruginosa, BBRI Pa-No. 15, Table 2, read-out: MIC) of 100 µg/mL (≈ 241 µM), an MIC (Pseudomonas aeruginosa; Pseudomonas aeruginosa, BBRI Pa-No. 15, Table 7, read-out: MIC) of 50 µg/mL (≈ 121 µM) and an MIC (Pseudomonas aeruginosa; Pseudomonas aeruginosa, BBRI Pa-No. 16, No. 130, Table 2, read-out: MIC) of 6.3 µg/mL (≈ 15.2 µM). It also gave an MIC (Pseudomonas aeruginosa; Pseudomonas aeruginosa, BBRI Pa-No. 16, No. 130, Table 7, read-out: MIC) of 3.1 µg/mL (≈ 7.48 µM), an MIC (Pseudomonas aeruginosa; Pseudomonas aeruginosa, BBRI Pa-No. 17, H6 D114, Table 7, read-out: MIC) of 25 µg/mL (≈ 60.3 µM) and an MIC (Pseudomonas aeruginosa; Pseudomonas aeruginosa, BBRI Pa-No. 18, H8 D121, Table 7, read-out: MIC) of 3.1 µg/mL (≈ 7.48 µM). It also gave an MIC (Pseudomonas aeruginosa; Pseudomonas aeruginosa, BBRI Pa-No. 19, Table 7, read-out: MIC) of 6.3 µg/mL (≈ 15.2 µM), an MIC (Pseudomonas aeruginosa; Pseudomonas aeruginosa, BBRI Pa-No. 20, Table 2, read-out: MIC) of 25 µg/mL (≈ 60.3 µM) and an MIC (Pseudomonas aeruginosa; Pseudomonas aeruginosa, BBRI Pa-No. 20, Table 7, read-out: MIC) of 25 µg/mL (≈ 60.3 µM). For the same molecule, the MIC (Pseudomonas aeruginosa; Pseudomonas aeruginosa, BBRI Pa-No. 21, Table 2, read-out: MIC) was 25 µg/mL (≈ 60.3 µM), the MIC (Pseudomonas aeruginosa; Pseudomonas aeruginosa, BBRI Pa-No. 21, Table 7, read-out: MIC) was 25 µg/mL (≈ 60.3 µM) and the MIC (Pseudomonas aeruginosa; Pseudomonas aeruginosa, BBRI Pa-No. 23, Table 2, read-out: MIC) was 50 µg/mL (≈ 121 µM). It also gave an MIC (Pseudomonas aeruginosa; Pseudomonas aeruginosa, BBRI Pa-No. 23, Table 7, read-out: MIC) of 25 µg/mL (≈ 60.3 µM), an MIC (Pseudomonas aeruginosa; Pseudomonas aeruginosa, BBRI Pa-No. 24, Table 2, read-out: MIC) of 100 µg/mL (≈ 241 µM) and an MIC (Pseudomonas aeruginosa; Pseudomonas aeruginosa, BBRI Pa-No. 24, Table 7, read-out: MIC) greater than 100 µg/mL. For the same molecule, the MIC (Pseudomonas aeruginosa; Pseudomonas aeruginosa, BBRI Pa-No. 25, Table 7, read-out: MIC) was 6.3 µg/mL (≈ 15.2 µM), the MIC (Pseudomonas aeruginosa; Pseudomonas aeruginosa, BBRI Pa-No. 28, CPH1C527/72, Table 7, read-out: MIC) was 50 µg/mL (≈ 121 µM) and the MIC (Pseudomonas aeruginosa; Pseudomonas aeruginosa, BBRI Pa-No. 28, CPH10527/72, Table 2, read-out: MIC) was 50 µg/mL (≈ 121 µM). The MIC (Pseudomonas aeruginosa; Pseudomonas aeruginosa, BBRI Pa-No. 29, D122, Table 2, read-out: MIC) was 25 µg/mL (≈ 60.3 µM), the MIC (Pseudomonas aeruginosa; Pseudomonas aeruginosa, BBRI Pa-No. 29, D122, Table 7, read-out: MIC) was 25 µg/mL (≈ 60.3 µM) and the MIC (Pseudomonas aeruginosa; Pseudomonas aeruginosa, BBRI Pa-No. 30, Table 2, read-out: MIC) was 25 µg/mL (≈ 60.3 µM). For the same molecule, the MIC (Pseudomonas aeruginosa; Pseudomonas aeruginosa, BBRI Pa-No. 30, Table 7, read-out: MIC) was 25 µg/mL (≈ 60.3 µM).
